From patent EP2147913A1, “Styrylquinolines, their process of preparation and their therapeutic uses” (BioAlliance Pharma, priority 2008, dated 2010)
Read-outs that look alike come from different tables or passages of the source.

Legend:
[1] = system: wild type HIV-1 virus (NL 4.3 strains); experiment: Antiviral activity assay on Hela P4 cells; type: cell-based; conditions: Human immunodeficiency virus 1, HeLaP4, 48 h, read-out: P4 IC50 (µM)
Description: The antiviral activity is determined by infecting HelaP4 cells with a wild type HIV-1 virus (NL 4.3 strains at 3 ng) on cells in presence or absence of drugs.
A serial dilution of drugs is done to evaluate the EC50. The effective concentration is the concentration of product at which virus replication is inhibited by 50 percent.
After 48 hours incubation, the quantification is done by the evaluation of β-Galactosidase produced by the infected Hela P4 cells. The viral activity is evaluated by colorimetric assay, CPRG, followed by plate reading at 570 nm with a reference of 690 nm. The CPRG test is a colorimetric assay which allows to quantity the β-galactosidase produced by HIV-1 infected indicator cells (the β-Gal gene being under the control of the HIV-1 LTR).

[2] = Viability assay (MTT cytotoxicity); type: cell-based; conditions: human; for CC50 at 48 h: hela-p4 cells, 2 days
Description: The cytotoxicity of compounds was evaluated using un-infected and infected HeLa-P4 cell and CEM leukemia cells. CEM cell were obtained from the American Type Tissue Collection (Rockville, MD).
A serial dilution of drugs is done to evaluate the cytotoxicity concentration and is identified by CC50 (concentration of drug which induces 50% of cytotoxicity)
The HeLa-P4 was cultured in the presence or absence of compounds for 2 days. After this time period, cells were cultivated with MTT for 3 hours, further the medium is removed. And the lysis buffer is incubated for 1 hour, followed by plate reading at 540 nm in a microplate reader.

[3] = system: wild type HIV-1 virus (NL 4.3 strains); experiment: Antiviral activity assay CEM cells; type: cell-based; conditions: Human immunodeficiency virus 1, CCRF-CEM
Description: The activity is determined by infecting CEM cells with a wild type HIV-1 virus (NL 4.3 strains at 3ng) on cells in presence or absence of drugs.
A serial dilution of drugs is done to evaluate the EC50.
The effective concentration is the concentration of product at which virus replication is inhibited by 50 percent.
After 48 hours incubation, the quantification is done by the evaluation of the viral protein p24 with a commercial Elisa Kit. P24 is a protein essential to the replication virus cycle. The quantification of this enzyme is proportional to the amount of virus produced by the infected cells.

HBX2 HIV integrase [4] = molecular target: T1, HBX2 HIV integrase (Human immunodeficiency virus type 1 group M subtype B, UniProt P04585); experiment: Strand Transfer Assay; type: biochemical
T1 construct: The pET-15b-IN plasmid contains the cDNA encoding the HBX2 HIV integrase; His tag (N, cleaved yes); made in house; host or cells: Escherichia coli BL21 (DE3)
Description: (§1) The pET-15b-IN plasmid contains the cDNA encoding the HBX2 HIV integrase. His-tagged integrase protein was overexpressed in Escherichia coli BL21 (DE3) and purified under native conditions. Briefly, at an OD of 0.8, fusion protein expression was induced in bacterial cultures by the addition of IPTG (1 mM). Cultures were incubated for 3 h at […], after which cells were centrifuged. The cell pellet was resuspended in ice-cold buffer A [20 mM Tris-HCl (pH 8), 1 M NaCl, 4 mM β-mercaptoethanol, and 5 mM imidazole], treated with lysozyme for 1 h on ice, and sonicated. After centrifugation (30 min at 10 000 rpm), the supernatant was filtered (0.45 µm) and incubated for at least 2 h with Ni-NTA agarose beads (Pharmacia). The beads were washed twice with 10 volumes of buffer A, 10 volumes of buffer A with 50 mM imidazole, and 10 volumes of buffer A with 100 mM imidazole. His-tagged integrase was then eluted with buffer A supplemented with 50 µM ZnSO4 and 1 M imidazole. The integrase concentration was adjusted to 0.1 mg/mL in buffer A. The fusion protein was cleaved using thrombin and dialyzed overnight against 20 mM Tris-HCl (pH 8), 1 M NaCl, and 4 mM β-mercaptoethanol. After removal of biotinylated thrombin by incubation with streptavidin-agarose magnetic beads (Novagen, Madison, WI), a second dialysis was performed for 2 h against 20 mM Tris-HCl (pH 8), 1 M NaCl, 4 mM β-mercaptoethanol, and 20% (v/v) ethylene glycol. Fractions were aliquoted and rapidly frozen at -80°C.
(§2) Oligonucleotides U5B (5'-[…]-3'), U5B-2 (5'-GTGTGGAAAATCTCTAGCA-3'), U5A (5'-[…]-3') were purchased from Eurogentec (Liege, Belgium) and further purified on an 18% denaturing acrylamide/urea gel. For processing, strand transfer, 100 pmol of U5B, U5B-2, respectively, were radiolabeled using T4 polynucleotide kinase and 50 µCi of [γ-32P]ATP (3000 Ci/mmol). […]
Processing, strand transfer reactions were performed using U5A-U5B-2, in buffer containing 20 mM Tris (pH 7.2), 50 mM NaCl, 10 mM DTT, 10mM MgCl2. […] Gels were analyzed using a STORM Molecular Dynamics phosphorimager and quantified with Image Quant™ 4.1 software.

HBX2 HIV integrase [5] = molecular target: T1, HBX2 HIV integrase; experiment: 3' LTR Processing Assay; type: biochemical
Description: as §1, §2
Processing reaction was performed using U5A-U5B, in buffer containing 20 mM Tris (pH 7.2), 50 mM NaCl, 10 mM DTT, and 10mM MgCl2. […] Gels were analyzed using a STORM Molecular Dynamics phosphorimager and quantified with Image Quant™ 4.1 software.

[6] = U5A-U5B-2 substrate DNA 12.5 nM, IN 200nM, 10mM MgCl2, up to 2 h at 37°C, read-out: Transfert IC50
[7] = U5A-U5B substrate DNA 12.5 nM, IN 200 nM, 10mM MgCl2, up to 2 h at 37°C, read-out: Processing IC50

Row | SMILES | IC50 [1] | CC50 at 48 h ([2]; read-out: Cytotoxicity IC50) | EC50 ([3]; 48 h, read-out: CEM (µM)) | IC50 (HBX2 HIV integrase [4]; [6]) | IC50 (HBX2 HIV integrase [5]; [7]) | CC50 at 48 h ([2]; comparative example, read-out: Cytoto-IC50 IC50) | IC50 at 2 days ([2]; HeLa-P4 cells) | EC50 ([3]; CEM cells, NL 4.3, 48 hours, p24 Elisa, read-out: CEM) | IC50 (HBX2 HIV integrase [4]) | IC50 (HBX2 HIV integrase [5])
1 | COc1cc(/C=C/c2ccc3ccc(Br)c(O)c3n2)cc(O)c1O [SQE63] | 0.82 µM | 11.7 µM | 2.8 µM | 0.95 µM | 0.95 µM | – | – | – | – | –
2 | O=C(O)c1ccc2ccc(/C=C/c3cc(O)c(O)c([N+](=O)[O-])c3)nc2c1O [SQE67] | 6.2 µM | 35 µM | 42 µM | 0.18 µM | 0.15 µM | – | – | – | – | –
3 | COc1cc(/C=C/c2ccc3ccc(C(=O)O)c(O)c3n2)cc(O)c1O [FZ41, reference compound] | – | – | – | – | – | > 100 µM | – | – | – | –
4 | O=C(O)c1ccc2ccc(/C=C/c3cc(O)c(O)c(Cl)c3)nc2c1O [SQE41, (E)-2-(3-chloro-4,5-dihydroxystyryl)-8-hydroxyquinoline-7-carboxylic acid] | 5 µM | – | – | – | – | – | 22.5 µM | 36 µM | 0.28 µM | 0.28 µM
